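Protocol summary: plate cells (96-well), add compound at 5 concentrations, incubate 48 h, interpolate endpoints linearly. The concentration for 50% growth inhibition is given as GI50.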 Calls of active or inactive are those of the source. Cut-off read from the data, not from the text of the source: active = GI50 up to about 1.1 µM and inactive = higher.
How the values were obtained:
Test in all cases: NCI tumour cell line growth inhibition, 48 h
786-0 = test system: 786-0
A498 = test system: A498
A549 = test system: A549
ACHN = test system: ACHN
CAKI-1 = test system: CAKI-1
CCRF-CEM = test system: CCRF-CEM
COLO 205 = test system: COLO 205
DLD-1 = test system: DLD-1
DMS-114 = test system: DMS-114
DMS-273 = test system: DMS-273
EKVX = test system: EKVX
HCC 2998 = test system: HCC 2998
HCT-116 = test system: HCT-116
HCT-15 = test system: HCT-15
HL-60 = test system: HL-60
HOP-62 = test system: HOP-62
HOP-92 = test system: HOP-92
HT-29 = test system: HT-29
IGROV-1 = test system: IGROV-1
K562 = test system: K562
KM-20L2 = test system: KM-20L2
KM12 = test system: KM12
LOX IMVI = test system: LOX IMVI
LXFL 529 = test system: LXFL 529
M14 = test system: M14
M19-MEL = test system: M19-MEL
MOLT-4 = test system: MOLT-4
Malme-3M = test system: Malme-3M
NCI-H226 = test system: NCI-H226
NCI-H23 = test system: NCI-H23
NCI-H522 = test system: NCI-H522
OVCAR-3 = test system: OVCAR-3
OVCAR-4 = test system: OVCAR-4
OVCAR-5 = test system: OVCAR-5
OVCAR-8 = test system: OVCAR-8
RPMI-8226 = test system: RPMI-8226
RXF 631 = test system: RXF 631
SF-268 = test system: SF-268
SF-295 = test system: SF-295
SF-539 = test system: SF-539
SK-MEL-28 = test system: SK-MEL-28
SK-MEL-2 = test system: SK-MEL-2
SK-MEL-5 = test system: SK-MEL-5
SK-OV-3 = test system: SK-OV-3
SN12C = test system: SN12C
SNB-19 = test system: SNB-19
SNB-75 = test system: SNB-75
SW-620 = test system: SW-620
TK-10 = test system: TK-10
U-251 = test system: U-251
UACC-257 = test system: UACC-257
UACC-62 = test system: UACC-62
UO-31 = test system: UO-31
XF498 = test system: XF498
HOP-18 = test system: HOP-18
MCF7 = test system: MCF7
NCI-H460 = test system: NCI-H460
NCI/ADR-RES = test system: NCI/ADR-RES
RXF 393 = test system: RXF 393
SNB-78 = test system: SNB-78

SMILES: Cc1cccc(/N=C/c2ccc(N(CCC#N)S(=O)(=O)c3ccccc3)cc2C)c1
- GI50 (786-0): > 100 µM (inactive)
- GI50 (A498): > 100 µM (inactive)
- GI50 (A549): > 100 µM (inactive)
- GI50 (ACHN): 88.3 µM (inactive)
- GI50 (CAKI-1): > 100 µM (inactive)
- GI50 (CCRF-CEM): 19.1 µM (inactive)
- GI50 (COLO 205): > 100 µM (inactive)
- GI50 (DLD-1): > 100 µM (inactive)
- GI50 (DMS-114): 63.7 µM (inactive)
- GI50 (DMS-273): > 100 µM (inactive)
- GI50 (EKVX): > 100 µM (inactive)
- GI50 (HCC 2998): > 100 µM (inactive)
- GI50 (HCT-116): > 100 µM (inactive)
- GI50 (HCT-15): 98.6 µM
- GI50 (HL-60): 21.9 µM (inactive)
- GI50 (HOP-62): > 100 µM (inactive)
- GI50 (HOP-92): 33.3 µM (inactive)
- GI50 (HT-29): > 100 µM (inactive)
- GI50 (IGROV-1): > 100 µM (inactive)
- GI50 (K562): 34.5 µM (inactive)
- GI50 (KM-20L2): > 100 µM (inactive)
- GI50 (KM12): > 100 µM (inactive)
- GI50 (LOX IMVI): 17.6 µM (inactive)
- GI50 (LXFL 529): 29.6 µM (inactive)
- GI50 (M14): > 100 µM (inactive)
- GI50 (M19-MEL): > 100 µM (inactive)
- GI50 (MOLT-4): 29.2 µM (inactive)
- GI50 (Malme-3M): > 100 µM (inactive)
- GI50 (NCI-H226): 20.7 µM (inactive)
- GI50 (NCI-H23): > 100 µM (inactive)
- GI50 (NCI-H522): > 100 µM (inactive)
- GI50 (OVCAR-3): > 100 µM (inactive)
- GI50 (OVCAR-4): > 100 µM (inactive)
- GI50 (OVCAR-5): > 100 µM (inactive)
- GI50 (OVCAR-8): 42.9 µM (inactive)
- GI50 (RPMI-8226): 63.4 µM (inactive)
- GI50 (RXF 631): > 100 µM (inactive)
- GI50 (SF-268): 58.9 µM (inactive)
- GI50 (SF-295): > 100 µM (inactive)
- GI50 (SF-539): > 100 µM (inactive)
- GI50 (SK-MEL-28): > 100 µM (inactive)
- GI50 (SK-MEL-2): > 100 µM (inactive)
- GI50 (SK-MEL-5): > 100 µM (inactive)
- GI50 (SK-OV-3): > 100 µM (inactive)
- GI50 (SN12C): > 100 µM (inactive)
- GI50 (SNB-19): > 100 µM (inactive)
- GI50 (SNB-75): 67 µM (inactive)
- GI50 (SW-620): > 100 µM (inactive)
- GI50 (TK-10): > 100 µM (inactive)
- GI50 (U-251): > 100 µM (inactive)
- GI50 (UACC-257): > 100 µM (inactive)
- GI50 (UACC-62): 26.1 µM (inactive)
- GI50 (UO-31): 13.3 µM (inactive)
- GI50 (XF498): > 100 µM (inactive)

SMILES: CC(=O)NC1=C[C@@H]([C@H]2COC(C)(C)O2)OC1=O
- GI50 (A498): > 100 µM (inactive)
- GI50 (A549): > 100 µM (inactive)
- GI50 (CAKI-1): > 100 µM (inactive)
- GI50 (CCRF-CEM): > 100 µM (inactive)
- GI50 (COLO 205): > 100 µM (inactive)
- GI50 (DLD-1): > 100 µM (inactive)
- GI50 (DMS-114): > 100 µM (inactive)
- GI50 (DMS-273): > 100 µM (inactive)
- GI50 (EKVX): > 100 µM (inactive)
- GI50 (HCC 2998): 99.3 µM (inactive)
- GI50 (HCT-116): > 100 µM (inactive)
- GI50 (HCT-15): > 100 µM
- GI50 (HL-60): > 100 µM (inactive)
- GI50 (HOP-18): > 100 µM (inactive)
- GI50 (HOP-62): > 100 µM (inactive)
- GI50 (HOP-92): > 100 µM (inactive)
- GI50 (HT-29): > 100 µM (inactive)
- GI50 (IGROV-1): > 100 µM (inactive)
- GI50 (K562): > 100 µM (inactive)
- GI50 (KM-20L2): > 100 µM (inactive)
- GI50 (KM12): > 100 µM (inactive)
- GI50 (LOX IMVI): > 100 µM (inactive)
- GI50 (M19-MEL): > 100 µM (inactive)
- GI50 (MCF7): > 100 µM (inactive)
- GI50 (MOLT-4): > 100 µM (inactive)
- GI50 (Malme-3M): > 100 µM (inactive)
- GI50 (NCI-H226): > 100 µM (inactive)
- GI50 (NCI-H23): > 100 µM (inactive)
- GI50 (NCI-H460): > 100 µM (inactive)
- GI50 (NCI-H522): > 100 µM (inactive)
- GI50 (NCI/ADR-RES): > 100 µM (inactive)
- GI50 (OVCAR-3): > 100 µM (inactive)
- GI50 (OVCAR-5): > 100 µM (inactive)
- GI50 (OVCAR-8): > 100 µM (inactive)
- GI50 (RPMI-8226): > 100 µM (inactive)
- GI50 (RXF 393): > 100 µM (inactive)
- GI50 (SF-268): > 100 µM (inactive)
- GI50 (SF-295): > 100 µM (inactive)
- GI50 (SF-539): > 100 µM (inactive)
- GI50 (SK-MEL-28): > 100 µM (inactive)
- GI50 (SK-MEL-2): > 100 µM (inactive)
- GI50 (SK-MEL-5): > 100 µM (inactive)
- GI50 (SK-OV-3): > 100 µM (inactive)
- GI50 (SN12C): > 100 µM (inactive)
- GI50 (SNB-19): > 100 µM (inactive)
- GI50 (SNB-75): > 100 µM (inactive)
- GI50 (SNB-78): > 100 µM (inactive)
- GI50 (SW-620): > 100 µM (inactive)
- GI50 (U-251): > 100 µM (inactive)
- GI50 (UACC-257): > 100 µM (inactive)
- GI50 (UACC-62): > 100 µM (inactive)
- GI50 (UO-31): > 100 µM (inactive)
- GI50 (XF498): > 82.8 µM (inactive)

— ChEMBL document CHEMBL1201862, “PubChem BioAssay data set” (2004)
